Data published in patent publication US8598208B2, “Pyridine derivatives as S1P1/EDG1 receptor modulators” (Actelion Pharmaceuticals Ltd., priority 2007, dated 2013).

Columns and labels:
[1] = molecular target: recombinant human S1P1 receptor (Homo sapiens, UniProt P21453); assay: GTPγS assay to determine EC50 values; type: biochemical; conditions: membrane preparations of CHO cells expressing recombinant human S1P1 receptor; pH 7.4; read-out: EC50 (agonistic activity, 35S-GTPγS binding)
Method: GTPγS binding assays are performed in 96 well microtiter plates (Nunc, 442587) in a final volume of 200 μl, using membrane preparations of CHO cells expressing recombinant human S1P1 receptor. Assay conditions are 20 mM Hepes (Fluka, 54461), 100 mM NaCl (Fluka, 71378), 5 mM MgCl2 (Fluka, 63064), 0.1% BSA (Calbiochem, 126609), 1 μM GDP (Sigma, G-7127), 2.5% DMSO (Fluka, 41644), […] ^35S-GTPγS (Amersham Biosciences, SJ1320). The pH is 7.4. Test compounds are dissolved and diluted in 100% DMSO and pre-incubated at room temperature for 30 min in 150 μl of the above assay buffer, in the absence of ^35S-GTPγS. After addition of 50 μl of ^35S-GTPγS, the assay is incubated for 1 h at rt. The assay is terminated by transfer of the reaction mixture to a Multiscreen plate (Millipore, MAHFC1H60) using a cell harvester from Packard Biosciences, and the plates are washed with ice-cold 10 mM Na2HPO4/NaH2PO4 (70%/30%), dried, sealed at the bottom and, after addition of 25 μl MicroScint20 (Packard Biosciences, order#6013621), sealed on the top. Membrane-bound ^35S-GTPγS is measured with a TopCount from Packard Biosciences.
EC50 is the concentration of agonist inducing 50% of the maximal specific ^35S-GTPγS binding. Specific binding is determined by subtracting non-specific binding from maximal binding. Maximal binding is the amount of cpm bound to the Multiscreen plate in the presence of 10 μM of S1P. Non-specific binding is the amount of binding in the absence of an agonist in the assay.

circulating lymphocytes = assay: Assessment of in vivo efficacy: circulating lymphocytes after oral administration; design: species or system normotensive male Wistar rats; conditions: 6 h after oral administration of 3 mg/kg, male Wistar rats, compared to vehicle group; mean ± SEM
Method: The efficacy of the compounds of Formula (I) is assessed by measuring the circulating lymphocytes after oral administration of 3 to 30 mg/kg of a compound of Formula (I) to normotensive male Wistar rats. The animals are housed in climate-controlled conditions with a 12 h-light/dark cycle, and have free access to normal rat chow and drinking water. Blood is collected before and 3, 6 and 24 h after drug administration. Full blood is subjected to hematology using Advia Hematology system (Bayer Diagnostics, Zürich, Switzerland).
All data are presented as mean±SEM. Statistical analyses are performed by analysis of variance (ANOVA) using Statistica (StatSoft) and the Student-Newman-Keuls procedure for multiple comparisons. The null hypothesis is rejected when p≦0.05.

Chain of recombinant human S1P1 receptor (P21453 whole entry): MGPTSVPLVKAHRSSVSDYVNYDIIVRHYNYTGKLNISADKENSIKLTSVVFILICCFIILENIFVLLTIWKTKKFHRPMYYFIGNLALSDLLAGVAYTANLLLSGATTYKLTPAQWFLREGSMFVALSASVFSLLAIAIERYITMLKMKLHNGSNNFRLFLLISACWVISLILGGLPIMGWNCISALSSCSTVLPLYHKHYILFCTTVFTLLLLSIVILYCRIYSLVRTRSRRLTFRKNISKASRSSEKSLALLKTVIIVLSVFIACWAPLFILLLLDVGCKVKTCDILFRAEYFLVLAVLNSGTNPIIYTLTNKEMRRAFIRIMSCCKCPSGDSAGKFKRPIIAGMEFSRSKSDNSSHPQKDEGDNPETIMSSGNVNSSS

Structure (SMILES) | EC50 [1] [nM] | Lymphocyte counts (circulating lymphocytes)
CCNc1cc(-c2nc(-c3cc(C)nc(CC)c3)no2)cc(C)n1 [Example 29] | 0.9 | 
CCc1cc(-c2noc(-c3cc(C)nc(CC)c3)n2)cc(C)n1 [Example 2] | 5.2 | 
CCCc1cc(-c2nc(-c3cc(C)nc(C)c3)no2)cc(C)n1 [Example 6] | 2.4 | −68% ± 3%^
Cc1cc(-c2noc(-c3cc(C)nc(CC(C)C)c3)n2)cc(C)n1 [Example 8] | 0.4 | 
CCc1cc(-c2noc(-c3cc(OC)nc(C4CCCC4)c3)n2)cc(C)n1 [Example 117] | 2.1 | 
CCc1cc(-c2noc(-c3cc(CC)nc(CC(C)C)c3)n2)cc(C)n1 [Example 62] | 1.4 | 
CCc1cc(-c2nc(-c3cc(C)nc(C)c3)no2)cc(CC(C)C)n1 [Example 61] | 1 | 
Cc1cc(-c2noc(-c3cc(C)nc(C4CCCC4)c3)n2)cc(C)n1 [Example 66] | 0.3 | 
CCC(CC)c1cc(-c2nc(-c3cc(C)nc(C)c3)no2)cc(C)n1 [Example 65] | 0.5 | 
CCc1cc(-c2noc(-c3cc(C)nc(C(CC)CC)c3)n2)cc(C)n1 [Example 45] | 0.4 | 
Cc1cc(-c2nc(-c3cnc(NC(C)C)c(C)c3)no2)cc(CC(C)C)n1 [Example 39] | 6.1 | 
